Measurements published in ChEMBL document CHEMBL1151412, “Constituents of Couepia paraensis” (1983).
Converted amounts (≈) assume the structure as drawn.

Tested on: KB
Experiment: Cytotoxicity against human KB cells
Type: functional
Details: read-out: ED50 (the source's name)

Structure (SMILES): COc1c(OC)c(O)c2c(=O)cc(C)oc2c1C
- EC50: 60 µg/mL (≈ 240 µM)
